Measured values taken from patent publication US20170190671A1, “BIS(ARYL)CATECHOL DERIVATIVES AS HERBICIDES” (E I DU PONT DE NEMOURS AND COMPANY, priority 2014, published 2017).

What was measured:
Format in all cases: in vivo
kochia (Kochia scoparia) [1] = assay: Test A preemergence; conditions: Bassia scoparia, pre-emergence, 240 h, 0 to 100 scale, read-out: Plant response rating, Kochia
How it was run: (§1)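 Pre- and postemergence greenhouse screen. Soil: loam + sand. Spray carrier: solvent mixture, non-phytotoxic, with surfactant. Post timing at 1–2 leaves, height 2–10 cm. Readout: visual injury on a 0–100 scale roughly 10 days after application, untreated plants as reference.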

[2] = tested on: pigweed (Amaranthus retroflexus); assay: Test A preemergence; conditions: Amaranthus retroflexus, pre-emergence, 240 h, 0 to 100 scale, read-out: Plant response rating, Pigweed
How it was run: as §1

[3] = tested on: giant foxtail (Setaria faberii); assay: Test A preemergence; conditions: Setaria faberi, pre-emergence, 240 h, 0 to 100 scale, read-out: Plant response rating, Foxtail, Giant
How it was run: as §1

[4] = tested on: ragweed (common ragweed, Ambrosia elatior); assay: Test A preemergence; conditions: Ambrosia artemisiifolia, pre-emergence, 240 h, 0 to 100 scale, read-out: Plant response rating, Ragweed
How it was run: as §1

[5] = tested on: Italian ryegrass (Lolium multiflorum); assay: Test A preemergence; conditions: Lolium multiflorum, pre-emergence, 240 h, 0 to 100 scale, read-out: Plant response rating, Ryegrass, Italian
How it was run: as §1

[6] = tested on: barnyardgrass (Echinochloa crus-galli); assay: Test A preemergence; conditions: Echinochloa crus-galli, pre-emergence, 240 h, 0 to 100 scale, read-out: Plant response rating, Barnyardgrass
How it was run: as §1

[7] = tested on: ducksalad (Heteranthera limosa); assay: Test B flooded paddy; conditions: Heteranthera limosa, 336 h; 250 g ai/ha, Flood, 13 to 15 days, scale 0 (no effect) to 100 (complete control); read-out: Plant response rating, Ducksalad
How it was run: (§2)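 Greenhouse pots flooded to 3 cm above soil at time of treatment received compound via the water, which stayed at that level.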

[8] = tested on: sedge, umbrella (small-flower umbrella sedge, Cyperus difformis); assay: Test B flooded paddy; conditions: Cyperus difformis, 336 h; 250 g ai/ha, Flood, 13 to 15 days, scale 0 (no effect) to 100 (complete control); read-out: Plant response rating, Sedge, Umbrella
How it was run: as §2

[9] = tested on: barnyardgrass (Echinochloa crus-galli); assay: Test B flooded paddy; conditions: Echinochloa crus-galli, 336 h; 250 g ai/ha, Flood, 13 to 15 days, scale 0 (no effect) to 100 (complete control); read-out: Plant response rating, Barnyardgrass
How it was run: as §2

rice (Oryza sativa) = assay: Test B flooded paddy; conditions: Oryza sativa, 336 h; 250 g ai/ha, Flood, 13 to 15 days, scale 0 (no effect) to 100 (complete control); read-out: Plant response rating, Rice
How it was run: as §2

corn (Zea mays) = assay: Test A postemergence; conditions: Zea mays, post-emergence, 240 h, 0 to 100 scale
How it was run: as §1

kochia (Kochia scoparia) [10] = assay: Test A postemergence; conditions: Bassia scoparia, post-emergence, 240 h, 0 to 100 scale, read-out: Plant response rating, Kochia
How it was run: as §1

[11] = tested on: blackgrass (Alopecurus myosuroides); assay: Test A postemergence; conditions: Alopecurus myosuroides, post-emergence, 240 h, 0 to 100 scale, read-out: Plant response rating, Blackgrass
How it was run: as §1

[12] = tested on: pigweed (Amaranthus retroflexus); assay: Test A postemergence; conditions: Amaranthus retroflexus, post-emergence, 240 h, 0 to 100 scale, read-out: Plant response rating, Pigweed
How it was run: as §1

[13] = tested on: giant foxtail (Setaria faberii); assay: Test A postemergence; conditions: Setaria faberi, post-emergence, 240 h, 0 to 100 scale, read-out: Plant response rating, Foxtail, Giant
How it was run: as §1

[14] = tested on: ragweed (common ragweed, Ambrosia elatior); assay: Test A postemergence; conditions: Ambrosia artemisiifolia, post-emergence, 240 h, 0 to 100 scale, read-out: Plant response rating, Ragweed
How it was run: as §1

[15] = tested on: Italian ryegrass (Lolium multiflorum); assay: Test A postemergence; conditions: Lolium multiflorum, post-emergence, 240 h, 0 to 100 scale, read-out: Plant response rating, Ryegrass, Italian
How it was run: as §1

[16] = tested on: galium (catchweed bedstraw, Galium aparine); assay: Test A postemergence; conditions: Galium, post-emergence, 240 h, 0 to 100 scale, read-out: Plant response rating, Galium
How it was run: as §1

[17] = tested on: barnyardgrass (Echinochloa crus-galli); assay: Test A postemergence; conditions: Echinochloa crus-galli, post-emergence, 240 h, 0 to 100 scale, read-out: Plant response rating, Barnyardgrass
How it was run: as §1

[18] = tested on: wheat (Triticum aestivum); assay: Test A postemergence; conditions: Triticum aestivum, post-emergence, 240 h, 0 to 100 scale, read-out: Plant response rating, Wheat
How it was run: as §1

[19] = tested on: lambsquarters (Chenopodium album); assay: Test C preemergence; conditions: Chenopodium album, pre-emergence, 336 h, scale 0 to 100, read-out: Plant response rating, Lambsquarters
From the text: (§3) Seeds of plant species selected from blackgrass (Alopecurus myosuroides), Italian ryegrass (Lolium multiflorum), winter wheat (Triticum aestivum), galium (catchweed bedstraw, Galium aparine), corn (Zea mays), large (Lg) crabgrass (Digitaria sanguinalis), giant foxtail (Setaria faberii), johnsongrass (Sorghum halepense), lambsquarters (Chenopodium album), morningglory (Ipomoea coccinea), yellow nutsedge (Cyperus esculentus), pigweed (Amaranthus retroflexus), ragweed (common ragweed, Ambrosia elatior), soybean (Glycine max), barnyardgrass (Echinochloa crus-galli), oilseed rape (Brassica napus), waterhemp (common waterhemp, Amaranthus rudis), and velvetleaf (Abutilon theophrasti) were planted into a blend of loam soil and sand and treated preemergence with test chemicals formulated in a non-phytotoxic solvent mixture which included a surfactant.
(§4) At the same time, plants selected from these crop and weed species and also chickweed (common chickweed, Stellaria media), kochia (Kochia scoparia), and wild oat (Avena fatua), were planted in pots containing Redi-Earth® planting medium (Scotts Company, 14111 Scottslawn Road, Marysville, Ohio 43041) comprising spaghnum peat moss, vermiculite, wetting agent and starter nutrients and treated with postemergence applications of test chemicals formulated in the same manner. Plants ranged in height from 2 to 18 cm (1- to 4-leaf stage) for postemergence treatments. Treated plants and controls were maintained in a greenhouse for 13 to 15 days, after which time all species were compared to controls and visually evaluated. Plant response ratings, summarized in Table C, are based on a scale of 0 to 100 where 0 is no effect and 100 is complete control. A dash (-) response means no test result.

[20] = tested on: barnyardgrass (Echinochloa crus-galli); assay: Test C preemergence; conditions: Echinochloa crus-galli, pre-emergence, read-out: Plant response rating, Barnyardgrass
From the text: as §3, §4

`N#Cc1cccc(Oc2ncc(Cl)cn2)c1Oc1ncc(Br)cn1` [Compound 4, 2-[(5-bromo-2-pyrimidinyl)oxy]-3-[(5-chloro-2-pyrimidinyl)oxy]benzonitrile] gave a pest or weed control at 125 g/ha (kochia (Kochia scoparia) [1]; 125 g ai/ha) of 90%, a pest or weed control at 500 g/ha (kochia (Kochia scoparia) [1]; 500 g ai/ha) of 100% and a pest or weed control at 125 g/ha ([2]; 125 g ai/ha) of 100%. The pest or weed control at 500 g/ha ([2]; 500 g ai/ha) was 100%, the pest or weed control at 125 g/ha ([3]; 125 g ai/ha) was 100% and the pest or weed control at 500 g/ha ([3]; 500 g ai/ha) was 100%. The pest or weed control at 125 g/ha ([4]; 125 g ai/ha) was 80%, the pest or weed control at 500 g/ha ([4]; 500 g ai/ha) was 100% and the pest or weed control at 125 g/ha ([5]; 125 g ai/ha) was 20%. The pest or weed control at 500 g/ha ([5]; 500 g ai/ha) was 100%, the pest or weed control at 125 g/ha ([6]; 125 g ai/ha) was 70% and the pest or weed control at 500 g/ha ([6]; 500 g ai/ha) was 100%. It also gave a pest or weed control at 250 g/ha [7] of 95%, a pest or weed control at 250 g/ha [8] of 80% and a pest or weed control at 250 g/ha [9] of 0%. It also gave a plant injury at 250 g/ha (rice (Oryza sativa)) of 0%, a Corn plant response rating (crop injury, 0 = no effect, 100 = complete kill) at 125 g/ha (corn (Zea mays); 125 g ai/ha) of 80% and a Corn plant response rating (crop injury, 0 = no effect, 100 = complete kill) at 500 g/ha (corn (Zea mays); 500 g ai/ha) of 100%. The pest or weed control at 125 g/ha (kochia (Kochia scoparia) [10]; 125 g ai/ha) was 100%, the pest or weed control at 500 g/ha (kochia (Kochia scoparia) [10]; 500 g ai/ha) was 100% and the pest or weed control at 125 g/ha ([11]; 125 g ai/ha) was 100%. It also gave a pest or weed control at 500 g/ha ([11]; 500 g ai/ha) of 100%, a pest or weed control at 125 g/ha ([12]; 125 g ai/ha) of 100% and a pest or weed control at 500 g/ha ([12]; 500 g ai/ha) of 100%. It also gave a pest or weed control at 125 g/ha ([13]; 125 g ai/ha) of 100%, a pest or weed control at 500 g/ha ([13]; 500 g ai/ha) of 100% and a pest or weed control at 125 g/ha ([14]; 125 g ai/ha) of 100%. It also gave a pest or weed control at 500 g/ha ([14]; 500 g ai/ha) of 100%, a pest or weed control at 125 g/ha ([15]; 125 g ai/ha) of 100% and a pest or weed control at 500 g/ha ([15]; 500 g ai/ha) of 100%. The pest or weed control at 125 g/ha ([16]; 125 g ai/ha) was 100%, the pest or weed control at 500 g/ha ([16]; 500 g ai/ha) was 100% and the pest or weed control at 125 g/ha ([17]; 125 g ai/ha) was 100%. For the same compound, the pest or weed control at 500 g/ha ([17]; 500 g ai/ha) was 100%, the plant injury at 125 g/ha ([18]; 125 g ai/ha) was 50% and the plant injury at 500 g/ha ([18]; 500 g ai/ha) was 100%. The pest or weed control at 31 g/ha ([19]; 31 g ai/ha, preemergence) was 95%, the pest or weed control at 62 g/ha ([19]; 62 g ai/ha, preemergence) was 85% and the pest or weed control at 125 g/ha ([19]; 125 g ai/ha, preemergence) was 100%. The pest or weed control at 16 g/ha ([19]; Preemergence, 16 g ai/ha) was 75%, the pest or weed control at 31 g/ha ([20]; 31 g ai/ha, preemergence, scale 0 to 100) was 60% and the pest or weed control at 62 g/ha ([20]; 62 g ai/ha, preemergence, scale 0 to 100) was 85%. For the same compound, the pest or weed control at 125 g/ha ([20]; 125 g ai/ha, preemergence, scale 0 to 100) was 100% and the pest or weed control at 16 g/ha ([20]; Preemergence, 16 g ai/ha, scale 0 to 100 (0 no effect, 100 complete control)) was 20%.
